Results: US8012961B2, “Tricyclic antibiotics” (Actelion Pharmaceutical Ltd., priority 2008, dated 2011)
In brackets after ≈: the same amount, converted by molar mass.

system: M. catarrhalis A894; test: MIC determination by microdilution in cation-adjusted Mueller-Hinton Broth (NCCLS); type: cell-based; details: Moraxella catarrhalis, A894, microdilution method, pH of the test medium 7.2-7.3
Description: These assays have been performed following the description given in “Methods for dilution Antimicrobial Susceptibility Tests for Bacteria that Grow Aerobically, 4th ed.; Approved standard: NCCLS Document M7-A4; National Committee for Clinical Laboratory Standards: Villanova, Pa., USA, 1997”. Minimal inhibitory concentrations (MICs; mg/l) were determined in cation-adjusted Mueller-Hinton Broth by a microdilution method following NCCLS guidelines (National Committee for Clinical Laboratory Standards. Methods for Dilution Antimicrobial Susceptibility). The pH of the test medium was 7.2-7.3. All Example compounds were tested against several Gram positive and Gram negative bacteria such as S. aureus, E. faecalis, S. pneumoniae, M. catarrhalis or E.coli.

| MIC | SMILES |
| --- | --- |
| ≤ 0.031 µg/mL | COc1ccc2ncc3c(c2n1)C(CN1CC[C@@H](CNCc2cc4c(cn2)OCCO4)C1)CO3 (mixture of isomers) [Example 12, (2,3-dihydro-[1,4]dioxino[2,3-c]pyridin-7-ylmethyl) -[(3S)-1-((1RS)-8-methoxy-1,2-dihydro-3-oxa-5,9-diaza-cyclopenta[a]naphthalen-1-ylmethyl)-pyrrolidin-3-ylmethyl]-amine] |
| ≤ 0.031 µg/mL | COc1ccc2ncc3c(c2n1)C(CN1CC[C@@H](CNC/C=C/c2cc(F)ccc2F)C1)CO3 (mixture of isomers) [Example 13, [(E)-3-(2,5-difluoro-phenyl)-allyl]-[(3S)-1-((1RS)-8-methoxy-1,2-dihydro-3-oxa-5,9-diaza-cyclopenta[a]naphthalen-1-ylmethyl)-pyrrolidin-3-ylmethyl]-amine] |
| ≤ 0.031 µg/mL | COc1ccc2ncc3c(c2n1)C(CN1CC[C@@H](CNCc2ccc4c(n2)NC(=O)CS4)C1)CO3 (mixture of isomers) [Example 14, 6-({[(3S)-1-((1RS)-8-methoxy-1,2-dihydro-3-oxa-5,9-diaza-cyclopenta[a]naphthalen-1-ylmethyl)-pyrrolidin-3-ylmethyl]-amino}-methyl)-4H-pyrido[3,2-b][1,4]thiazin-3-one] |
| ≤ 0.031 µg/mL | COc1ccc2ncc3c(c2n1)C(CN1CCO[C@@H](CNCc2ccc4c(n2)NC(=O)CS4)C1)CO3 (mixture of isomers) [Example 25, 6-({[(2S)-4-((1RS)-8-methoxy-1,2-dihydro-3-oxa-5,9-diaza-cyclopenta[a]naphthalen-1-ylmethyl)-morpholin-2-ylmethyl]-amino}-methyl)-4H-pyrido[3,2-b][1,4]thiazin-3-one] |
| ≤ 0.031 µg/mL | COc1ccc2ncc3c(c2n1)C(CN1CCO[C@@H](CNCc2cc4c(cn2)OCCO4)C1)CO3 (mixture of isomers) [Example 26, (2,3-dihydro-[1,4]dioxino[2,3-c]pyridin-7-ylmethyl) -[(2S)-4-((1RS)-8-methoxy-1,2-dihydro-3-oxa-5,9-diaza-cyclopenta[a]naphthalen-1-ylmethyl)-morpholin-2-ylmethyl]-amine] |
| ≤ 0.031 µg/mL | COc1ccc2ncc3c(c2n1)C(CN1CCC[C@@H](CNCc2ccc4c(n2)NC(=O)CS4)C1)CO3 (mixture of isomers) [Example 28, 6-({[(3S)-1-((1RS)-8-methoxy-1,2-dihydro-3-oxa-5,9-diaza-cyclopenta[a]naphthalen-1-ylmethyl)-piperidin-3-ylmethyl]-amino}-methyl)-4H-pyrido[3,2-b][1,4]thiazin-3-one] |
| ≤ 0.031 µg/mL | COc1ccc2ncc3c(c2n1)C(CN1CCC[C@@H](CNCc2ccc4c(c2)NC(=O)CO4)C1)CO3 (mixture of isomers) [Example 31, 6-({[(3S)-1-((1RS)-8-methoxy-1,2-dihydro-3-oxa-5,9-diaza-cyclopenta[a]naphthalen-1-ylmethyl)-piperidin-3-ylmethyl]-amino}-methyl)-4H-benzo[1,4]oxazin-3-one] |
| ≤ 0.031 µg/mL | COc1ccc2ncc3c(c2n1)C(CN1CCC[C@@H](CNCc2cc4c(nn2)OCCO4)C1)CO3 (mixture of isomers) [Example 39, (6,7-dihydro-[1,4]dioxino[2,3-c]pyridazin-3-ylmethyl)-[(3S)-1-((1RS)-8-methoxy-1,2-dihydro-3-oxa-5,9-diaza-cyclopenta[a]naphthalen-1-ylmethyl)-piperidin-3-ylmethyl]-amine] |
| ≤ 0.031 µg/mL | COc1ccc2ccc3c(c2n1)C(CN1CCC(NC/C=C/c2cc(F)ccc2F)CC1)CO3 (racemic) [Example 1, rac-[(E)-3-(2,5-difluoro-phenyl)-allyl]-[1-(2-methoxy-8,9-dihydro-furo[2,3-h]quinolin-9-ylmethyl)-piperidin-4-yl]-amine] |
| ≤ 0.031 µg/mL | COc1ccc2ccc3c(c2n1)C(CN1CCC(NCc2cc4c(cn2)OCCO4)CC1)CO3 (racemic) [Example 2, rac-(2,3-dihydro-[1,4]dioxino[2,3-c]pyridin-7-ylmethyl)-[1-(2-methoxy-8,9-dihydro-furo[2,3-h]quinolin-9-ylmethyl)-piperidin-4-yl]-amine] |
| ≤ 0.031 µg/mL | COc1ccc2ccc3c(c2n1)C(CN1CCC(NCc2cc4c(nn2)OCCO4)CC1)CO3 (racemic) [Example 3, rac-(6,7-dihydro-[1,4]dioxino[2,3-c]pyridazin-3-ylmethyl)-[1-(2-methoxy-8,9-dihydro-furo[2,3-h]quinolin-9-ylmethyl)-piperidin-4-yl]-amine] |
| ≤ 0.031 µg/mL | COc1ccc2ccc3c(c2n1)C(CN1CCC(NCc2ccc4c(n2)NC(=O)CS4)CC1)CO3 (racemic) [Example 4, rac-6-{[1-(2-methoxy-8,9-dihydro-furo[2,3-h]quinolin-9-ylmethyl) -piperidin-4-ylamino]-methyl}-4H-pyrido[3,2-b][1,4]thiazin-3-one] |
| ≤ 0.031 µg/mL | COc1ccc2ccc3c(c2n1)C(CN1CCC(NCc2ccc4c(n2)NC(=O)CO4)CC1)CO3 (racemic) [Example 5, rac-6-{[1-(2-methoxy-8,9-dihydro-furo[2,3-h]quinolin-9-ylmethyl) -piperidin-4-ylamino]-methyl}-4H-pyrido[3,2-b][1,4]oxazin-3-one] |
| ≤ 0.031 µg/mL | COc1ccc2ncc3c(c2n1)C(CN1CCC(NCc2ccc4c(n2)NC(=O)CO4)CC1)CO3 (racemic) [Example 6, rac-6-{[1-(8-methoxy-1,2-dihydro-3-oxa-5,9-diaza-cyclopenta[a]naphthalen-1-ylmethyl)-piperidin-4-ylamino]-methyl}-4H-pyrido[3,2-b][1,4]oxazin-3-one] |
| ≤ 0.031 µg/mL | COc1ccc2ncc3c(c2n1)C(CN1CCC(NCc2ccc4c(n2)NC(=O)CS4)CC1)CO3 (racemic) [Example 7, rac-6-{[1-(8-methoxy-1,2-dihydro-3-oxa-5,9-diaza-cyclopenta[a]naphthalen-1-ylmethyl)-piperidin-4-ylamino]-methyl}-4H-pyrido[3,2-b][1,4]thiazin-3-one] |
| ≤ 0.031 µg/mL | COc1ccc2ncc3c(c2n1)C(CN1CCC(NCc2cc4c(nn2)OCCO4)CC1)CO3 (racemic) [Example 8, rac-(6,7-dihydro-[1,4]dioxino[2,3-c]pyridazin-3-ylmethyl)-[1-(8-methoxy-1,2-dihydro-3-oxa-5,9-diaza-cyclopenta[a]naphthalen-1-ylmethyl) -piperidin-4-yl]-amine] |
| ≤ 0.031 µg/mL | COc1ccc2ncc3c(c2n1)C(CN1CCC(NCc2cc4c(cn2)OCCO4)CC1)CO3 (racemic) [Example 9, rac-(2,3-dihydro-[1,4]dioxino[2,3-c]pyridin-7-ylmethyl)-[1-(8-methoxy-1,2-dihydro-3-oxa-5,9-diaza-cyclopenta[a]naphthalen-1-ylmethyl)-piperidin-4-yl]-amine] |
| ≤ 0.031 µg/mL | COc1ccc2ncc3c(c2n1)C(CN1CCC(NCc2ccc4c(c2)OCCO4)CC1)CO3 (racemic) [Example 10, rac-(2,3-dihydro-benzo[1,4]dioxin-6-ylmethyl)-[1-(8-methoxy-1,2-dihydro-3-oxa-5,9-diaza-cyclopenta[a]naphthalen-1-ylmethyl)-piperidin-4-yl]-amine] |
| 0.125 µg/mL (≈ 0.27 µM) | COc1ccc2ccc3c(c2n1)C(CN1CCC(NCc2ccc4c(n2)OCCO4)CC1)CO3 (racemic) [Example 11, rac-(2,3-dihydro-[1,4]dioxino[2,3-b]pyridin-6-ylmethyl)-[1-(2-methoxy-8,9-dihydro-furo[2,3-h]quinolin-9-ylmethyl)-piperidin-4-yl]-amine] |
| ≤ 0.031 µg/mL | COc1ccc2ccc3c(c2n1)C(CN1CCC(NCc2ccc4c(c2)NC(=O)CO4)CC1)CO3 (racemic) [Example 15, rac-6-{[1-(2-methoxy-8,9-dihydro-furo[2,3-h]quinolin-9-ylmethyl) -piperidin-4-ylamino]-methyl}-4H-benzo[1,4]oxazin-3-one] |

same assay, conditions: microdilution method, pH of the test medium 7.2-7.3

| MIC M. catarrhalis A894 | SMILES |
| --- | --- |
| ≦0.031 mg/l | COc1ccc2ncc3c(c2n1)C(CN1[C@@H]2CC[C@H]1C[C@H](NCc1cc4c(cn1)OCCO4)C2)CO3 (mixture of isomers) [Example 20, (2,3-dihydro-[1,4]dioxino[2,3-c]pyridin-7-ylmethyl) -[(3-exo)-8-((1RS)-8-methoxy-1,2-dihydro-3-oxa-5,9-diaza-cyclopenta[a]naphthalen-1-ylmethyl)-8-aza-bicyclo[3.2.1]oct-3-yl]-amine] |
| ≦0.031 mg/l | COc1ccc2ncc3c(c2n1)C(CN1C2CCC1CC(NC/C=C/c1cc(F)ccc1F)C2)CO3 (racemic) [Example 21, [(E)-3-(2,5-difluoro-phenyl)-allyl]-[(3-exo)-8-((1RS)-8-methoxy-1,2-dihydro-3-oxa-5,9-diaza-cyclopenta[a]naphthalen-1-ylmethyl)-8-aza-bicyclo[3.2.1]oct-3-yl]-amine] |
| ≦0.031 mg/l | COc1ccc2ncc3c(c2n1)C(CN1C2CCC1CC(NCc1ccc4c(n1)NC(=O)CO4)C2)CO3 (racemic) [Example 22, 6-{[(3-exo)-8-((1RS)-8-methoxy-1,2-dihydro-3-oxa-5,9-diaza-cyclopenta[a]naphthalen-1-ylmethyl)-8-aza-bicyclo[3.2.1]oct-3-ylamino]-methyl}-4H-pyrido[3,2-b][1,4]oxazin-3-one] |
| ≦0.031 mg/l | COc1ccc2ncc3c(c2n1)C(CN1[C@@H]2CC[C@H]1C[C@H](NCc1ccc4c(n1)NC(=O)CS4)C2)CO3 (mixture of isomers) [Example 23, 6-{[(3-exo)-8-((1RS)-8-methoxy-1,2-dihydro-3-oxa-5,9-diaza-cyclopenta[a]naphthalen-1-ylmethyl)-8-aza-bicyclo[3.2.1]oct-3-ylamino]-methyl}-4H-pyrido[3,2-b][1,4]thiazin-3-one] |
| ≦0.031 mg/l | COc1ccc2ncc3c(c2n1)C(CN1CCO[C@@H](CNCc2ccc4c(n2)NC(=O)CO4)C1)CO3 (mixture of isomers) [Example 24, 6-({[(2S)-4-((1RS)-8-methoxy-1,2-dihydro-3-oxa-5,9-diaz-cyclopenta[a]naphthalen-1-ylmethyl)-morpholin-2-ylmethyl]-amino}-methyl) -4H-pyrido[3,2-b][1,4]oxazin-3-one] |
